Test results from US5144059A, “Catecholamine esters” (priority 1989, dated 1992).
Several values for one entry are separate records, joined by “and”; a condition that tells them apart may be missing. Equal values may be shown once.

What was measured:
[1] = system: Intraocular pressure in rabbit; assay: Intraocular pressure in rabbit after topical application; format: in vivo; conditions: 0.1% solution topical; for Intraocular pressure: individual animal, Hydrochloride; for Intraocular pressure, mean: N=6
[2] = Permeability across excised pig cornea (perfusion method, HPLC); format: in vitro ADME; conditions: for Amount of unchanged product in the receiving compartment (permeability rate): 2.5 mM in donor, GBR pH 7.65, 34-35 °C; for Release of epinephrine inside the eye: conclusion from the excised cornea experiment; for Amount of epinephrine released by 2B223 in the receiving compartment: released by 2B223 (2450 nMoles in donor); for Amount of epinephrine released by 2B852 in the receiving compartment: released by 2B852 (2770 nMoles in donor)
Experimental: Perfusion method: pig corneas have been removed with about 2 mm of sclera and set on a perfusion cell.
The receiving compartment and that of the donor were respectively filled with 6 ml and 1 ml of GBR solution (Glutathione Bicarbonate Ringer's solution) preheated at 35° C.
During the analysis the cells were maintained at a temperature of 34°-35° C. with a thermostat (REACTI-THERM, Pierce). Besides, the solutions in the 2 compartments were maintained under a flow of 95% O2 --5% CO2 mixture.
The GBR solution in the donor compartment was then substituted with 1 ml of GBR solution saturated with O2 --CO2 containing, 2B223 or 2B852 (2.5 mM).
Aliquots of 600 μl were withdrawn from the receiving compartment every 40 minutes for a period of 4 hours and immediately replaced with an equal volume of GBR.
A solution of GBR with diclofenac (0.1%) maintained at the same conditions (temperature 34°-35° C. and gassed with (O2 --CO2) acted as control aliquots from the control were withdrawn at the same times.
The samples and the controls at various times were immediately analyzed by HPLC.
Solutions: Glutathione Bicarbonate Ringer's (GBR), pH 7.65. The GBR solution was prepared in two parts: part I was composed of sodium chloride 12.4 g/l, potassium chloride 0.716 g/l, sodium dihydrogen phosphate monohydrate 0.206 g/l and sodium bicarbonate 4.908 g/l while part II was composed of calcium chloride 0.230 g/l, magnesium chloride 0.318 g/l, glucose 1.8 g/l and oxidized glutathioine 0.184 g/l. Both parts were stored cold and utilized within two weeks.
Equal volumes of part I and II were mixed prior to use.

[3] = system: Ocular Hypertension in Man; assay: Ocular pressure in patients with non-severe ocular hypertension after instillation; format: in vivo; conditions: one drop 0.1% solution; for Ocular pressure: individual patient, Hydrochloride; for Ocular pressure, mean: N=4
Experimental: 1 drop of a 0.1% solution of 2B223 or 2B852, respectively, was instilled into each eye of 8 patients (males) suffering from non-severe ocular hypertension. Ocular pressure was tested at time 0, and 30, 120, 180 minutes after the ocular instillation. At same times blood pressure and heart rate were also tested.

[4] = applied topically to the eye; stated as known; cited from earlier work

| Structure (SMILES) | Intraocular pressure ([1]; 1 hour) | Intraocular pressure ([1]; 2 hours) | Intraocular pressure ([1]; 4 hours) | Intraocular pressure ([1]; 8 hours) | Intraocular pressure ([1]; time 0 (baseline)) | Intraocular pressure, mean ([1]; 1 hour) [mm Hg] | Intraocular pressure, mean ([1]; 2 hours) [mm Hg] | Intraocular pressure, mean ([1]; 4 hours) [mm Hg] | Intraocular pressure, mean ([1]; 8 hours) [mm Hg] | Intraocular pressure, mean ([1]; time 0 (baseline)) [mm Hg] | Amount of unchanged product in the receiving compartment (permeability rate) ([2]; 40 min) [nmol] | Amount of unchanged product in the receiving compartment (permeability rate) ([2]; 80 min) [nmol] | Amount of unchanged product in the receiving compartment (permeability rate) ([2]; 120 min) [nmol] | Amount of unchanged product in the receiving compartment (permeability rate) ([2]; 160 min) [nmol] | Release of epinephrine inside the eye [2] | Ocular pressure ([3]; left eye, 0 min (baseline)) | Ocular pressure ([3]; left eye, 30 min) | Ocular pressure ([3]; left eye, 120 min) | Ocular pressure ([3]; left eye, 180 min) | Ocular pressure ([3]; right eye, 0 min (baseline)) | also measured |
| --- | --- | --- | --- | --- | --- | --- | --- | --- | --- | --- | --- | --- | --- | --- | --- | --- | --- | --- | --- | --- | --- |
| CNCC(O)c1ccc(OC(=O)N(C)C)c(OC(=O)c2ccc(C)cc2)c1.Cl (centres unmarked) [2B223, 3-O-(4-Methylbenzoyl)-4-O-(N,N-Dimethylcarbamoyl)adrenaline Hydrochloride] | 12 mm Hg and 13 mm Hg and 11 mm Hg | 13 mm Hg and 14 mm Hg | 14 mm Hg and 15 mm Hg and 13 mm Hg | 15 mm Hg and 16 mm Hg and 14 mm Hg | 16 mm Hg and 15 mm Hg and 17 mm Hg | 12.2 | 13.3 | 14.2 | 15.2 | 16.0 | 0.0 | 1.3 | 4.1 | 23.5 | epinephrine is released inside the eye | 26 mmHg and 25 mmHg | 25 mmHg and 23 mmHg | 20 mmHg and 22 mmHg | 22 mmHg and 24 mmHg and 25 mmHg | 27 mmHg and 24 mmHg and 23 mmHg | Ocular pressure ([3]; right eye, 30 min): 24 mmHg and 23 mmHg and 25 mmHg; Ocular pressure ([3]; right eye, 120 min): 22 mmHg and 21 mmHg and 23 mmHg; Ocular pressure ([3]; right eye, 180 min): 23 mmHg and 22 mmHg and 24 mmHg; Ocular pressure, mean ([3]; left eye, 0 min (baseline)): 25.8 mmHg; Ocular pressure, mean ([3]; left eye, 30 min): 24.5 mmHg; Ocular pressure, mean ([3]; left eye, 120 min): 21.5 mmHg; Ocular pressure, mean ([3]; left eye, 180 min): 23.8 mmHg; Ocular pressure, mean ([3]; right eye, 0 min (baseline)): 25.3 mmHg; Ocular pressure, mean ([3]; right eye, 30 min): 24.0 mmHg; Ocular pressure, mean ([3]; right eye, 120 min): 22.3 mmHg; Ocular pressure, mean ([3]; right eye, 180 min): 23.3 mmHg |
| CNCC(O)c1ccc(OC(=O)N(C)C)c(OC(=O)C(C)C)c1.Cl (centres unmarked) [2B852, 3-O-Isobutyryl-4-O-(N,N-Dimethylcarbamoyl)adrenaline Hydrochloride] | 12 mm Hg and 13 mm Hg and 11 mm Hg | 13 mm Hg and 14 mm Hg | 14 mm Hg and 15 mm Hg | 16 mm Hg and 15 mm Hg and 14 mm Hg | 15 mm Hg and 16 mm Hg | 11.8 | 13.5 | 14.3 | 15.3 | 15.7 | 0.0 | 0.0 | 0.0 | 0.0 | epinephrine is released inside the eye | 27 mmHg and 26 mmHg | 26 mmHg and 24 mmHg and 25 mmHg | 24 mmHg and 22 mmHg and 25 mmHg | 23 mmHg and 25 mmHg | 26 mmHg and 25 mmHg and 24 mmHg and 28 mmHg | Ocular pressure ([3]; right eye, 30 min): 25 mmHg and 24 mmHg and 23 mmHg and 26 mmHg; Ocular pressure ([3]; right eye, 120 min): 23 mmHg and 22 mmHg and 24 mmHg; Ocular pressure ([3]; right eye, 180 min): 25 mmHg and 22 mmHg and 23 mmHg and 24 mmHg; Ocular pressure, mean ([3]; left eye, 0 min (baseline)): 26.5 mmHg; Ocular pressure, mean ([3]; left eye, 30 min): 25.3 mmHg; Ocular pressure, mean ([3]; left eye, 120 min): 23.8 mmHg; Ocular pressure, mean ([3]; left eye, 180 min): 23.8 mmHg; Ocular pressure, mean ([3]; right eye, 0 min (baseline)): 25.8 mmHg; Ocular pressure, mean ([3]; right eye, 30 min): 24.0 mmHg; Ocular pressure, mean ([3]; right eye, 120 min): 23.0 mmHg; Ocular pressure, mean ([3]; right eye, 180 min): 23.5 mmHg |
| CNC[C@H](O)c1ccc(O)c(O)c1 [EPINEPHRINE, epinephrine, reference compound] | – | – | – | – | – | – | – | – | – | – | – | – | – | – | – | – | – | – | – | – | Amount of epinephrine released by 2B223 in the receiving compartment ([2]; 40 min): 15.8 nmol; Amount of epinephrine released by 2B223 in the receiving compartment ([2]; 80 min): 21.7 nmol; Amount of epinephrine released by 2B223 in the receiving compartment ([2]; 120 min): 23.4 nmol; Amount of epinephrine released by 2B223 in the receiving compartment ([2]; 160 min): 26.2 nmol; Amount of epinephrine released by 2B852 in the receiving compartment ([2]; 40 min): 14.5 nmol; Amount of epinephrine released by 2B852 in the receiving compartment ([2]; 80 min): 23.7 nmol; Amount of epinephrine released by 2B852 in the receiving compartment ([2]; 120 min): 28.9 nmol; Amount of epinephrine released by 2B852 in the receiving compartment ([2]; 160 min): 32.0 nmol; Permeation of cornea barrier [4]: does not permeate cornea barrier |
